Source: the Kinase Knowledgebase extract (Sharma et al. 2016)
Where “and” joins values, the source holds several entries; their conditions need not be identical. Equal values may be shown once.

Biological target: MAPK14 (human) (UniProt Q16539)
Assay: Inhibition of MAPK14 Kinase Activity

MAPK14 (human), sequence (Q16539 whole entry, looked up): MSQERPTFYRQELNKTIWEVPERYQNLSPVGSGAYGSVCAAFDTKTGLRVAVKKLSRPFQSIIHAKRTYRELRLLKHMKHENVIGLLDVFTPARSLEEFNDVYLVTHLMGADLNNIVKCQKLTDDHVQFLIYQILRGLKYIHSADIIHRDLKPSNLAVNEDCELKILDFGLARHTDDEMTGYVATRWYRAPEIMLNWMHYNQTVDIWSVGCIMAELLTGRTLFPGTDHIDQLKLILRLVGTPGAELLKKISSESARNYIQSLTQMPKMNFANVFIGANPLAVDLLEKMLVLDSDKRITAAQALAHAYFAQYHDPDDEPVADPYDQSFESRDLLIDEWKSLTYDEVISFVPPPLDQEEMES

| SMILES | IC50 |
| --- | --- |
| O=C(CO)N1CCC(c2[nH]nc(-c3ccc(Cl)c(F)c3)c2-c2ccncn2)CC1 | 455 nM |
| C[C@H](N[C@H]1CC[C@@H](c2[nH]nc(-c3ccc(Cl)cc3)c2-c2ccncn2)CC1)c1ccccc1 | 112 nM and 44.9 nM |
| CC(=O)O[C@@H](C(=O)N1CCC(c2[nH]nc(-c3ccc(Cl)cc3)c2-c2ccncn2)CC1)c1ccccc1 | 572 nM |
| O=C(CO)N1CCC(c2[nH]nc(-c3ccc(Cl)cc3)c2-c2ccnc(NC3CCCC3)n2)CC1 | 10 nM |
| CN(C)CCNc1nccc(-c2c(-c3ccc(Cl)cc3)n[nH]c2C2CCN(C(=O)CO)CC2)n1 | 859 nM |
| COc1ccc(-c2n[nH]c(C3CCN(C(=O)CO)CC3)c2-c2ccncn2)cc1OC | > 100000 nM |
| C[C@@H](N[C@H]1CC[C@H](c2[nH]nc(-c3ccc(Cl)cc3)c2-c2ccncn2)CC1)c1ccccc1 | 8.56 nM |
| O=C(CO)N1CCC(c2[nH]nc(-c3ccc(F)c(C(F)(F)F)c3)c2-c2ccncn2)CC1 | 339 nM |
| CN(C)CCNc1nccc(-c2c(-c3ccc(Cl)cc3F)n[nH]c2C2CCN(C)CC2)n1 | 1000 nM |
| Cc1cc(-c2n[nH]c(C3CCN(C(=O)CO)CC3)c2-c2ccncn2)ccc1F | 155 nM |
| Fc1ccc(CN2CCC(c3[nH]nc(-c4ccc(Cl)cc4)c3-c3ccncn3)CC2)cc1 | 9.27 nM |
| CC(C)(C)OC(=O)N1CCC(c2[nH]nc(-c3ccc(Cl)cc3)c2-c2ccnc(O[C@H]3CCOC3)n2)CC1 | 1680 nM |
| CC(C)(C)OC(=O)N1CCC(c2[nH]nc(-c3ccc(Cl)cc3F)c2-c2ccnc(NC3CCCC3)n2)CC1 | 10 nM |
| Cc1cc(F)ccc1-c1n[nH]c(C2CCN(C(=O)CO)CC2)c1-c1ccncn1 | 2680 nM |
| Clc1ccc(-c2n[nH]c([C@H]3CC[C@@H](NC4CCCCC4)CC3)c2-c2ccncn2)cc1 | 235 nM |
| C[C@H](N[C@H]1CC[C@@H](c2[nH]nc(-c3ccc(Cl)cc3)c2-c2ccncn2)CC1)c1ccc(F)cc1 | 130 nM and 61 nM |
| O=C(C1CCCO1)N1CCC(c2[nH]nc(-c3ccc(Cl)cc3)c2-c2ccncn2)CC1 (centres undefined) | 120 nM |
| C[C@@H](N[C@H]1CC[C@H](c2[nH]nc(-c3ccc(Cl)cc3)c2-c2ccncn2)CC1)c1ccc(F)cc1 | 5.76 nM |
| CN(C)CCNc1nccc(-c2c(-c3ccc(F)c(C(F)(F)F)c3)n[nH]c2C2CCNCC2)n1 | 111 nM |
